# ChEMBL document CHEMBL4825686, “HTS-based discovery and optimization of novel positive allosteric modulators of the α7 nicotinic acetylcholine receptor” (Eur J Med Chem, 2021)
# Test system: not listed separately
# Test: Mutagenicity in Salmonella typhimurium TA100 in presence of rat liver S9 fraction by AMES test
# Type: toxicity, subcellular
# Details: salmonella enterica subsp. enterica serovar typhimurium; call rule not given here
row,Structure (SMILES),Activity
1,Cc1ccc(CN2CCN(C(=O)C(=O)Nc3ccc4c(F)cn(C)c4c3)CC2)cc1,Toxic
2,Cc1ccc(CN2CCN(C(=O)C(=O)Nc3cc4ccn(C)c4cc3F)CC2)cc1,Toxic
3,Cc1ccc(CN2CCN(C(=O)C(=O)Nc3ccc4c(c3)c(Cl)cn4C)CC2)cc1,Toxic

# Test system: not listed separately
# Test: Kinetic solubility of compound
# Type: physicochemical
# Details: read-out: Kinetic_solubility
row,Structure (SMILES),solubility kinetic [µM]
1,Cc1ccc(Oc2cnc(C(=O)C(=O)Nc3ccc4c(ccn4C)c3)cn2)cc1,10
2,Cc1ccc(CN2CCN(C(=O)C(=O)Nc3ccc4c(F)cn(C)c4c3)CC2)cc1,12.5
3,Cc1ccc(CN2CCN(C(=O)NCc3ccc4c(ccn4C)c3)CC2)cc1,18.9
4,Cc1ccc(CN2CCN(C(=O)C(=O)Nc3cnc4c(ccn4C)c3)CC2)cc1,47.4
5,Cc1ccc(CN2CCN(C(=O)C(=O)Nc3ccc4c(c3)CCN4C)CC2)cc1,95
6,Cc1ccc(CN2CCN(C(=O)C(=O)Nc3cc4ccn(C)c4cc3F)CC2)cc1,47.1
7,Cc1ccc(Oc2ccc(C(=O)C(=O)Nc3ccc4c(ccn4C)c3)cc2)cc1,2
8,Cc1ccc(OC2CC3CCC(C2)N3C(=O)C(=O)Nc2ccc3[nH]ccc3c2)cc1 (stereo unspecified),8.1
9,Cc1ccc(CN2CCN(C(=O)C(=O)Nc3ccc4c(c3)c(Cl)cn4C)CC2)cc1,6.8
10,Cn1ccc2cc(NC(=O)C(=O)c3cnc(Oc4ccc(Cl)cc4)s3)ccc21,0.1
11,Cc1ccc(CN2C[C@@H](C)N(C(=O)C(=O)Nc3ccc4[nH]ccc4c3)C[C@@H]2C)cc1,14.9
12,Cc1ccc(CN2CCN(C(=O)C(=O)Nc3ccn4cccc4c3)CC2)cc1,5.6

# Molecular target: Neuronal acetylcholine receptor subunit alpha-7 (Homo sapiens, UniProt P36544)
# Test: Positive allosteric modulator activity at human alpha7 nAChR expressed in Flp-In-HEK293 cells co-expressing RIC-3 assessed as potentiation of PNU282987-induced calcium influx measured after 10 mins by FLIPR assay
# Type: cell-based, Flp-In-293
# Details: flp-in-293
# Sequence of Neuronal acetylcholine receptor subunit alpha-7 (P36544 whole entry): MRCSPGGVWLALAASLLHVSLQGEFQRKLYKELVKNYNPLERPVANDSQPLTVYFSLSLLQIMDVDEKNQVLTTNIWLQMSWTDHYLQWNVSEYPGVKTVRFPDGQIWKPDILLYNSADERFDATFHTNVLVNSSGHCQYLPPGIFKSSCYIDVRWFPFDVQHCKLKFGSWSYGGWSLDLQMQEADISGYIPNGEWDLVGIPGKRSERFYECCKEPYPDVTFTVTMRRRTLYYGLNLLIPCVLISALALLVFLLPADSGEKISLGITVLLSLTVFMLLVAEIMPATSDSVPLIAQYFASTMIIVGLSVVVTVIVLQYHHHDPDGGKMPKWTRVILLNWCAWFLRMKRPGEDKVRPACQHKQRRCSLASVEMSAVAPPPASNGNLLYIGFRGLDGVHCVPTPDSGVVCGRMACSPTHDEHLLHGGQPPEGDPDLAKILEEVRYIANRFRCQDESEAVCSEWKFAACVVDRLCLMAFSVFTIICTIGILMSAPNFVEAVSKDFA
row,Structure (SMILES),EC50
1,Cc1ccc(CN2CCC(NC(=O)Nc3ccc4c(ccn4C)c3)CC2)cc1,Not Active
2,Cc1ccc(CN2CCC(c3nnc(C(=O)Nc4ccc5c(ccn5C)c4)o3)CC2)cc1,Not Active
3,Cc1ccc(CN2CCCC(C(=O)NCc3ccc4c(ccn4C)c3)C2)cc1 (stereo unspecified),Not Active
4,Cc1ccc(CC2CCN(C(=O)C(=O)Nc3ccc4[nH]c(C)cc4c3)CC2)cc1,Not Active
5,Cc1ccc(OC2CC3CCC(C2)N3C(=O)C(=O)Nc2ccc3[nH]ccc3c2)cc1 (stereo unspecified),Not Active
6,Cn1ccc2cc(NC(=O)C(=O)c3cnc(Oc4ccc(Cl)cc4)s3)ccc21,Not Active
7,Cc1ccc(CN2C[C@@H](C)N(C(=O)C(=O)Nc3ccc4[nH]ccc4c3)C[C@@H]2C)cc1,Not Active
8,Cc1ccc(CN2CCN(C(=O)C(=O)NCc3ccc4c(ccn4C)c3)CC2)cc1,Not Active
9,COCC(C(=O)Nc1ccc2c(ccn2C)c1)N1CCC(Oc2ccc(C)cc2)CC1 (stereo unspecified),Not Active

# Same assay, conditions: read-out: EC50
row,Structure (SMILES),EC50 [nM]
1,Cc1ccc(OC2CCN(C(=O)NCc3ccc4c(ccn4C)c3)CC2)cc1,210
2,Cc1ccc(Oc2cnc(C(=O)C(=O)Nc3ccc4c(ccn4C)c3)cn2)cc1,650
3,Cc1ccc(CN2CCC(C(=O)C(=O)Nc3ccc4c(ccn4C)c3)CC2)cc1,600
4,Cc1ccc(Oc2ccc(C(=O)NCc3ccc4c(ccn4C)c3)cc2)cc1,40
5,Cn1ccc2cc(CNC(=O)N3CC(COc4ccc(Cl)cc4)C3)ccc21,55
6,Cc1ccc(CN2CCN(C(=O)C(=O)Nc3ccc4c(F)cn(C)c4c3)CC2)cc1,1400
7,Cn1ccc2cc(CNC(=O)N3CC(COc4ccc(C(F)(F)F)cc4)C3)ccc21,80
8,Cc1ccc(O[C@H]2CC[C@H](C(=O)C(=O)Nc3ccc4c(ccn4C)c3)CC2)cn1,670
9,Cc1ccc(CN2CCN(C(=O)NCc3ccc4c(ccn4C)c3)CC2)cc1,490
10,COc1ccc(OCC2CN(C(=O)NCc3ccc4c(ccn4C)c3)C2)cc1,60
11,Cc1ccc(CN2CCN(C(=O)C(=O)Nc3cnc4c(ccn4C)c3)CC2)cc1,400
12,Cc1ccc(OC2CCN(C(=O)NCc3ccc4c(ccn4C)c3)C2)cc1 (stereo unspecified),170
13,Cc1ccc(CC2CCN(C(=O)C(=O)Nc3ccc4[nH]ccc4c3)CC2)cc1,910
14,Cc1ccc(CN2CCN(C(=O)C(=O)Nc3ccc4c(c3)CCN4C)CC2)cc1,820
15,Cc1ccc(CN2CCN(C(=O)C(=O)Nc3cc4ccn(C)c4cc3F)CC2)cc1,900
16,Cc1ccc(OCC2CN(C(=O)NCc3ccc4c(ccn4C)c3)C2)cc1,40
17,Cc1ccc(Oc2ccc(C(=O)C(=O)Nc3ccc4c(ccn4C)c3)cc2)cc1,60
18,Cn1ccc2cc(CNC(=O)N3CC(COc4ccc(OC(F)(F)F)cc4)C3)ccc21,25
19,Cc1ccc(CN2CCN(C(=O)c3nnc(-c4cccc5c4ccn5C)o3)CC2)cc1,660
20,Cn1ccc2cc(CNC(=O)N3CC(COc4ccccc4)C3)ccc21,180
21,Cc1ccc(OC2CN(C(=O)NCc3ccc4c(ccn4C)c3)C2)cc1,620
22,Cc1ccc(OCC2CN(C(=O)C(=O)Nc3ccc4c(ccn4C)c3)C2)cc1,3000
23,Cc1ccc(CN2CCN(C(=O)C(=O)Nc3ccc4c(c3)c(Cl)cn4C)CC2)cc1,420
24,Cn1ccc2cc(CNC(=O)N3CC(COc4ccc(C#N)cc4)C3)ccc21,350
25,Cc1ccc(CN2CCN(C(=O)C(=O)Nc3cnc4c(c3)c(F)cn4C)CC2)cc1,210
26,Cc1ccc(CN2CCN(C(=O)C(=O)Nc3ccn4cccc4c3)CC2)cc1,3300
27,Cn1nc(-c2ccc3c(ccn3C)c2)cc1C(=O)N1CCN(Cc2ccc(Cl)cc2)CC1,2500
28,Cc1ccc(OCC2CCN(C(=O)NCc3ccc4c(ccn4C)c3)C2)cc1 (stereo unspecified),280
29,Cn1ccc2cc(CNC(=O)N3CC(COc4ccc(F)cc4)C3)ccc21,220
30,Cc1ccc(OC2CCN(C(=O)C(=O)Nc3ccc4[nH]ccc4c3)CC2)cc1,260

# Test system: not listed separately
# Test: Metabolic stability in human liver microsomes assessed as intrinsic clearance at 1 uM measured per mg protein upto 40 mins
# Type: ADME, Microsome
# Details: read-out: CLH
row,Structure (SMILES),microsomal CLint at 1 µM [µL/min/mg]
1,Cc1ccc(Oc2cnc(C(=O)C(=O)Nc3ccc4c(ccn4C)c3)cn2)cc1,90
2,Cc1ccc(CN2CCN(C(=O)NCc3ccc4c(ccn4C)c3)CC2)cc1,24
3,Cc1ccc(CN2CCN(C(=O)C(=O)Nc3cnc4c(ccn4C)c3)CC2)cc1,0.3
4,Cc1ccc(CN2CCN(C(=O)C(=O)Nc3ccc4c(c3)CCN4C)CC2)cc1,71
5,Cc1ccc(Oc2ccc(C(=O)C(=O)Nc3ccc4c(ccn4C)c3)cc2)cc1,34
6,Cc1ccc(OC2CC3CCC(C2)N3C(=O)C(=O)Nc2ccc3[nH]ccc3c2)cc1 (stereo unspecified),12
7,Cc1ccc(CN2CCN(C(=O)C(=O)Nc3cnc4c(c3)c(F)cn4C)CC2)cc1,12
8,Cc1ccc(CN2C[C@@H](C)N(C(=O)C(=O)Nc3ccc4[nH]ccc4c3)C[C@@H]2C)cc1,2

# Test system: not listed separately
# Test: Metabolic stability in Wistar rat liver microsomes assessed as intrinsic clearance at 1 uM measured per mg protein upto 40 mins
# Type: ADME, Microsome
# Details: read-out: CLH
row,Structure (SMILES),microsomal CLint at 1 µM [µL/min/mg]
1,Cc1ccc(Oc2cnc(C(=O)C(=O)Nc3ccc4c(ccn4C)c3)cn2)cc1,127
2,Cc1ccc(CN2CCN(C(=O)C(=O)Nc3cnc4c(ccn4C)c3)CC2)cc1,56
3,Cc1ccc(CN2CCN(C(=O)C(=O)Nc3ccc4c(c3)CCN4C)CC2)cc1,23
4,Cc1ccc(Oc2ccc(C(=O)C(=O)Nc3ccc4c(ccn4C)c3)cc2)cc1,48
5,Cc1ccc(OC2CC3CCC(C2)N3C(=O)C(=O)Nc2ccc3[nH]ccc3c2)cc1 (stereo unspecified),61
6,Cc1ccc(CN2CCN(C(=O)C(=O)Nc3cnc4c(c3)c(F)cn4C)CC2)cc1,41

# Test system: not listed separately
# Test: Metabolic stability in NMRI mouse liver microsomes assessed as intrinsic clearance at 1 uM measured per mg protein upto 40 mins
# Type: ADME, Microsome
# Details: read-out: CLH
row,Structure (SMILES),microsomal CLint at 1 µM [µL/min/mg]
1,Cc1ccc(Oc2cnc(C(=O)C(=O)Nc3ccc4c(ccn4C)c3)cn2)cc1,156
2,Cc1ccc(CN2CCN(C(=O)C(=O)Nc3cnc4c(ccn4C)c3)CC2)cc1,46
3,Cc1ccc(CN2CCN(C(=O)C(=O)Nc3ccc4c(c3)CCN4C)CC2)cc1,18
4,Cc1ccc(Oc2ccc(C(=O)C(=O)Nc3ccc4c(ccn4C)c3)cc2)cc1,46
5,Cc1ccc(OC2CC3CCC(C2)N3C(=O)C(=O)Nc2ccc3[nH]ccc3c2)cc1 (stereo unspecified),40
6,Cc1ccc(CN2CCN(C(=O)C(=O)Nc3cnc4c(c3)c(F)cn4C)CC2)cc1,39

# Test system: not listed separately
# Test: Mutagenicity in Salmonella typhimurium TA1535 in presence of rat liver S9 fraction by AMES test
# Type: toxicity, subcellular
# Details: salmonella enterica subsp. enterica serovar typhimurium
row,Structure (SMILES),Activity
1,Cc1ccc(CN2CCN(C(=O)C(=O)Nc3ccc4c(F)cn(C)c4c3)CC2)cc1,Toxic
2,Cc1ccc(CN2CCN(C(=O)C(=O)Nc3cc4ccn(C)c4cc3F)CC2)cc1,Toxic
3,Cc1ccc(CN2CCN(C(=O)C(=O)Nc3ccc4c(c3)c(Cl)cn4C)CC2)cc1,Toxic

# Test system: not listed separately
# Test: Mutagenicity in Salmonella typhimurium TA98 in presence of rat liver S9 fraction by AMES test
# Type: toxicity, subcellular
# Details: salmonella enterica subsp. enterica serovar typhimurium
row,Structure (SMILES),Activity
1,Cc1ccc(CN2CCN(C(=O)C(=O)Nc3ccc4c(F)cn(C)c4c3)CC2)cc1,Toxic
2,Cc1ccc(CN2CCN(C(=O)C(=O)Nc3cc4ccn(C)c4cc3F)CC2)cc1,Toxic
3,Cc1ccc(CN2CCN(C(=O)C(=O)Nc3ccc4c(c3)c(Cl)cn4C)CC2)cc1,Toxic

# Test system: not listed separately
# Test: Mutagenicity in Salmonella typhimurium TA98 in absence of rat liver S9 fraction by AMES test
# Type: toxicity
# Details: salmonella enterica subsp. enterica serovar typhimurium
row,Structure (SMILES),Activity
1,Cc1ccc(CN2CCN(C(=O)C(=O)Nc3ccc4c(F)cn(C)c4c3)CC2)cc1,Toxic
2,Cc1ccc(CN2CCN(C(=O)C(=O)Nc3cc4ccn(C)c4cc3F)CC2)cc1,Toxic
3,Cc1ccc(CN2CCN(C(=O)C(=O)Nc3ccc4c(c3)c(Cl)cn4C)CC2)cc1,Toxic

# Test system: not listed separately
# Test: Mutagenicity in Salmonella typhimurium TA100 in absence of rat liver S9 fraction by AMES test
# Type: toxicity
# Details: salmonella enterica subsp. enterica serovar typhimurium
row,Structure (SMILES),Activity
1,Cc1ccc(CN2CCN(C(=O)C(=O)Nc3ccc4c(F)cn(C)c4c3)CC2)cc1,Toxic
2,Cc1ccc(CN2CCN(C(=O)C(=O)Nc3cc4ccn(C)c4cc3F)CC2)cc1,Toxic
3,Cc1ccc(CN2CCN(C(=O)C(=O)Nc3ccc4c(c3)c(Cl)cn4C)CC2)cc1,Toxic

# Test system: not listed separately
# Test: Mutagenicity in Salmonella typhimurium TA1537 in presence of rat liver S9 fraction by AMES test
# Type: toxicity, subcellular
# Details: salmonella enterica subsp. enterica serovar typhimurium
row,Structure (SMILES),Activity
1,Cc1ccc(CN2CCN(C(=O)C(=O)Nc3ccc4c(F)cn(C)c4c3)CC2)cc1,Toxic
2,Cc1ccc(CN2CCN(C(=O)C(=O)Nc3cc4ccn(C)c4cc3F)CC2)cc1,Toxic
3,Cc1ccc(CN2CCN(C(=O)C(=O)Nc3ccc4c(c3)c(Cl)cn4C)CC2)cc1,Toxic

# Test system: not listed separately
# Test: Mutagenicity in Salmonella typhimurium TA1537 in absence of rat liver S9 fraction by AMES test
# Type: toxicity
# Details: salmonella enterica subsp. enterica serovar typhimurium
row,Structure (SMILES),Activity
1,Cc1ccc(CN2CCN(C(=O)C(=O)Nc3ccc4c(F)cn(C)c4c3)CC2)cc1,Toxic
2,Cc1ccc(CN2CCN(C(=O)C(=O)Nc3cc4ccn(C)c4cc3F)CC2)cc1,Toxic
3,Cc1ccc(CN2CCN(C(=O)C(=O)Nc3ccc4c(c3)c(Cl)cn4C)CC2)cc1,Toxic

# Test system: not listed separately
# Test: Mutagenicity in Escherichia coli WP2 uvrA in presence of rat liver S9 fraction by AMES test
# Type: toxicity, subcellular
# Details: not given
row,Structure (SMILES),Activity
1,Cc1ccc(CN2CCN(C(=O)C(=O)Nc3ccc4c(F)cn(C)c4c3)CC2)cc1,Toxic
2,Cc1ccc(CN2CCN(C(=O)C(=O)Nc3cc4ccn(C)c4cc3F)CC2)cc1,Toxic
3,Cc1ccc(CN2CCN(C(=O)C(=O)Nc3ccc4c(c3)c(Cl)cn4C)CC2)cc1,Toxic

# Test system: not listed separately
# Test: Mutagenicity in Escherichia coli WP2 uvrA in absence of rat liver S9 fraction by AMES test
# Type: toxicity
# Details: not given
row,Structure (SMILES),Activity
1,Cc1ccc(CN2CCN(C(=O)C(=O)Nc3ccc4c(F)cn(C)c4c3)CC2)cc1,Toxic
2,Cc1ccc(CN2CCN(C(=O)C(=O)Nc3cc4ccn(C)c4cc3F)CC2)cc1,Toxic
3,Cc1ccc(CN2CCN(C(=O)C(=O)Nc3ccc4c(c3)c(Cl)cn4C)CC2)cc1,Toxic

# Test system: not listed separately
# Test: Mutagenicity in Salmonella typhimurium TA1535 in absence of rat liver S9 fraction by AMES test
# Type: toxicity
# Details: salmonella enterica subsp. enterica serovar typhimurium
row,Structure (SMILES),Activity
1,Cc1ccc(CN2CCN(C(=O)C(=O)Nc3ccc4c(F)cn(C)c4c3)CC2)cc1,Toxic
2,Cc1ccc(CN2CCN(C(=O)C(=O)Nc3cc4ccn(C)c4cc3F)CC2)cc1,Toxic
3,Cc1ccc(CN2CCN(C(=O)C(=O)Nc3ccc4c(c3)c(Cl)cn4C)CC2)cc1,Toxic
